Data taken from the NIST ThermoML archive (doi:10.1021/je800150h).
± gives the expanded uncertainty stated by the source.

Assay: mn = molality of the nth substance listed, in mol/kg
Settings: 101 kPa, Liquid; for electrical conductivity: CyberScan CON500 conductivity meter

[Cl-].[Li+] [lithium chloride] + CCO
Settings | electrical conductivity [S/m] | mass density [kg/m3] | viscosity [mPa·s]
268.1 K, m1 = 0.196 | 0.117 ± 0.0094 | 810.9 ± 3.8 | 2.208 ± 0.1
268.1 K, m1 = 0.391 | 0.197 ± 0.016 | 817.9 ± 3.8 | 2.546 ± 0.12
268.1 K, m1 = 0.782 | 0.269 ± 0.021 | 828.4 ± 3.9 | 3.283 ± 0.15
268.1 K, m1 = 1.173 | 0.3 ± 0.024 | 838.1 ± 3.9 | 4.167 ± 0.19
268.1 K, m1 = 1.76 | 0.305 ± 0.024 | 854.5 ± 4 | 5.819 ± 0.26
268.1 K, m1 = 2.347 | 0.276 ± 0.022 | 869.4 ± 4.1 | 9.082 ± 0.38
268.1 K, m1 = 3.129 | 0.222 ± 0.018 | 887.7 ± 4.2 | 14.96 ± 0.6
268.1 K, m1 = 3.911 | 0.162 ± 0.013 | 907.8 ± 4.3 | 25.44 ± 1
273.1 K, m1 = 0.196 | 0.13 ± 0.01 | 805.1 ± 3.6 | 2.043 ± 0.096
273.1 K, m1 = 0.391 | 0.221 ± 0.018 | 810.6 ± 3.6 | 2.313 ± 0.11
273.1 K, m1 = 0.782 | 0.3 ± 0.024 | 821.3 ± 3.6 | 2.943 ± 0.14
273.1 K, m1 = 1.173 | 0.335 ± 0.027 | 832.5 ± 3.7 | 3.722 ± 0.17
273.1 K, m1 = 1.76 | 0.343 ± 0.027 | 847 ± 3.8 | 5.158 ± 0.23
273.1 K, m1 = 2.347 | 0.315 ± 0.025 | 863.1 ± 3.8 | 7.821 ± 0.33
273.1 K, m1 = 3.129 | 0.258 ± 0.021 | 882.4 ± 3.9 | 12.71 ± 0.51
273.1 K, m1 = 3.911 | 0.198 ± 0.016 | 901.1 ± 4 | 21.16 ± 0.85
278.1 K, m1 = 0.196 | 0.144 ± 0.011 | 803.2 ± 3.4 | 1.863 ± 0.088
278.1 K, m1 = 0.391 | 0.245 ± 0.02 | 810.3 ± 3.4 | 2.099 ± 0.098
278.1 K, m1 = 0.782 | 0.336 ± 0.027 | 821.5 ± 3.5 | 2.638 ± 0.12
278.1 K, m1 = 1.173 | 0.383 ± 0.031 | 834.1 ± 3.5 | 3.323 ± 0.15
278.1 K, m1 = 1.76 | 0.394 ± 0.032 | 845.5 ± 3.6 | 4.57 ± 0.21
278.1 K, m1 = 2.347 | 0.362 ± 0.029 | 864.5 ± 3.7 | 6.735 ± 0.29
278.1 K, m1 = 3.129 | 0.3 ± 0.024 | 883.6 ± 3.8 | 10.78 ± 0.44
278.1 K, m1 = 3.911 | 0.238 ± 0.019 | 902.1 ± 3.9 | 17.62 ± 0.7
283.1 K, m1 = 0.196 | 0.158 ± 0.013 | 796.1 ± 3.1 | 1.695 ± 0.08
283.1 K, m1 = 0.391 | 0.27 ± 0.022 | 800.9 ± 3.2 | 1.908 ± 0.09
283.1 K, m1 = 0.782 | 0.37 ± 0.03 | 812.2 ± 3.2 | 2.366 ± 0.11
283.1 K, m1 = 1.173 | 0.441 ± 0.035 | 823.4 ± 3.3 | 2.959 ± 0.14
283.1 K, m1 = 1.76 | 0.445 ± 0.036 | 837.4 ± 3.3 | 4.045 ± 0.18
283.1 K, m1 = 2.347 | 0.417 ± 0.033 | 854.2 ± 3.4 | 5.802 ± 0.25
283.1 K, m1 = 3.129 | 0.348 ± 0.028 | 875.7 ± 3.5 | 9.203 ± 0.38
283.1 K, m1 = 3.911 | 0.276 ± 0.022 | 891.8 ± 3.6 | 14.68 ± 0.59
288.15 K, m1 = 0.196 | 0.172 ± 0.014 | 789.7 ± 2.9 | 1.495 ± 0.071
288.15 K, m1 = 0.391 | 0.295 ± 0.024 | 795.9 ± 2.9 | 1.715 ± 0.081
288.15 K, m1 = 0.782 | 0.415 ± 0.033 | 807.5 ± 3 | 2.1 ± 0.098
288.15 K, m1 = 1.173 | 0.477 ± 0.038 | 817.5 ± 3.1 | 2.603 ± 0.12
288.15 K, m1 = 1.76 | 0.505 ± 0.04 | 831.6 ± 3.1 | 3.546 ± 0.16
288.15 K, m1 = 2.347 | 0.472 ± 0.038 | 849.1 ± 3.2 | 4.988 ± 0.23
288.15 K, m1 = 3.129 | 0.396 ± 0.032 | 868.4 ± 3.3 | 7.807 ± 0.33
288.15 K, m1 = 3.911 | 0.322 ± 0.026 | 886.9 ± 3.4 | 12.34 ± 0.49
293.15 K, m1 = 0.196 | 0.188 ± 0.015 | 786 ± 2.7 | 1.357 ± 0.065
293.15 K, m1 = 0.391 | 0.325 ± 0.026 | 791.9 ± 2.8 | 1.524 ± 0.073
293.15 K, m1 = 0.782 | 0.459 ± 0.037 | 803.3 ± 2.8 | 1.869 ± 0.088
293.15 K, m1 = 1.173 | 0.533 ± 0.043 | 813.6 ± 2.9 | 2.307 ± 0.11
293.15 K, m1 = 1.76 | 0.565 ± 0.045 | 828.8 ± 2.9 | 3.124 ± 0.14
293.15 K, m1 = 2.347 | 0.529 ± 0.042 | 845.4 ± 3 | 4.395 ± 0.2
293.15 K, m1 = 3.129 | 0.45 ± 0.036 | 864.7 ± 3.1 | 6.784 ± 0.29
293.15 K, m1 = 3.911 | 0.367 ± 0.029 | 883.4 ± 3.2 | 10.56 ± 0.43
